Source: patent US12685735B2 (Foghorn Therapeutics Inc., priority 2020, dated 2026)

What was measured:
[1] = target: BRG-1 (Homo sapiens, UniProt P51532); assay: ATPase catalytic activity assay of BRG-1 (ADP-Glo); format: biochemical; conditions: ATPase catalytic activity, ADP-Glo; for IC50: read-out: BRG1 IC50 (μM)*; for Emax: read-out: BRG1 Max % Inhibition
How it was run: (§1)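 Luminescence from ADP formed by BRM or BRG-1 ATPase was detected after a two-step ADP-Glo workup at room temperature. The first step, removing unconsumed ATP, took 40 min; the second, converting ADP to ATP for luciferase, took 60 min.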

[2] = target: BRM (Homo sapiens, UniProt P51531); assay: ATPase catalytic activity assay of BRM (ADP-Glo); format: biochemical; conditions: for IC50: read-out: BRM IC50 (μM)*
Sequence of BRM (P51531 whole entry): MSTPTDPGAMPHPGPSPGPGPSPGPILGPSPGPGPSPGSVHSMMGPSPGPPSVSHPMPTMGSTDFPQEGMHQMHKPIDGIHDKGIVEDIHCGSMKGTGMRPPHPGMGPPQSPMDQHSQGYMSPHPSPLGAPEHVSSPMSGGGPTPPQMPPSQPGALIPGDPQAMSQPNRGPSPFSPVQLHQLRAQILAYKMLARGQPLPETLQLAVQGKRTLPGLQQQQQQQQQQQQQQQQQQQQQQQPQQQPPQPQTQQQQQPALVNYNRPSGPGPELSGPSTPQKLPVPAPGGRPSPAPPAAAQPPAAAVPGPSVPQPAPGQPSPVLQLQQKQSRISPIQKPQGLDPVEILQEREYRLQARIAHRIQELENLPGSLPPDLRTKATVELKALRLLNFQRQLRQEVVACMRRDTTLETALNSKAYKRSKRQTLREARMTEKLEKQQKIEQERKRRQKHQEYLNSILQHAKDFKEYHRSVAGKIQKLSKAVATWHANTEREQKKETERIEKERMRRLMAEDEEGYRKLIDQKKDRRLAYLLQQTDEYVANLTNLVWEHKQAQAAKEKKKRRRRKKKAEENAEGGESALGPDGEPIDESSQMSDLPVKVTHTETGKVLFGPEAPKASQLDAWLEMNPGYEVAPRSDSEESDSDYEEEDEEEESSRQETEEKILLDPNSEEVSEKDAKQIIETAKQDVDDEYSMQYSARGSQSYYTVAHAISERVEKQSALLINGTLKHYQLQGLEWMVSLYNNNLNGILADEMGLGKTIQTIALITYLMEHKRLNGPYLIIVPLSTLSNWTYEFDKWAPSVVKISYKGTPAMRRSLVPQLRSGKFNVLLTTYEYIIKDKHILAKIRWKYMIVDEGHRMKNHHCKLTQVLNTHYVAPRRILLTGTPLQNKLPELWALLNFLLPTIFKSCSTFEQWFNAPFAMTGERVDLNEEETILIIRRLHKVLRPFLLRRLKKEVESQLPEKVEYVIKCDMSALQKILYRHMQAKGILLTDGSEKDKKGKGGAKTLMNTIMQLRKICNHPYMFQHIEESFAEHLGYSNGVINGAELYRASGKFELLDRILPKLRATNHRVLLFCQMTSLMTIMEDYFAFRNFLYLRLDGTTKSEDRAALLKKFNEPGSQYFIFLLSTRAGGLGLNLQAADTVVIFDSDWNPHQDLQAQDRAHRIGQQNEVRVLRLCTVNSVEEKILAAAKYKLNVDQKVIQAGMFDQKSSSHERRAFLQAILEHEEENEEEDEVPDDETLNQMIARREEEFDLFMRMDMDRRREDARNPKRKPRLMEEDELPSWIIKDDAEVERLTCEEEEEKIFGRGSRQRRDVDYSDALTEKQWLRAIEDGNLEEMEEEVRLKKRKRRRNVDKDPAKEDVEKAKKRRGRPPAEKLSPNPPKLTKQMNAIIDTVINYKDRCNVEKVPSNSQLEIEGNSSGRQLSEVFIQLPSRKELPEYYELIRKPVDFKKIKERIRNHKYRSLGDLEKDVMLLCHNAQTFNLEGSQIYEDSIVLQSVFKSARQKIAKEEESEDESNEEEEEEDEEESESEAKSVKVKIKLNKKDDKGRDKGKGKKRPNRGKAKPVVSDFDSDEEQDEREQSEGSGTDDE
How it was run: as §1

Sequence of BRG-1 (P51532 whole entry): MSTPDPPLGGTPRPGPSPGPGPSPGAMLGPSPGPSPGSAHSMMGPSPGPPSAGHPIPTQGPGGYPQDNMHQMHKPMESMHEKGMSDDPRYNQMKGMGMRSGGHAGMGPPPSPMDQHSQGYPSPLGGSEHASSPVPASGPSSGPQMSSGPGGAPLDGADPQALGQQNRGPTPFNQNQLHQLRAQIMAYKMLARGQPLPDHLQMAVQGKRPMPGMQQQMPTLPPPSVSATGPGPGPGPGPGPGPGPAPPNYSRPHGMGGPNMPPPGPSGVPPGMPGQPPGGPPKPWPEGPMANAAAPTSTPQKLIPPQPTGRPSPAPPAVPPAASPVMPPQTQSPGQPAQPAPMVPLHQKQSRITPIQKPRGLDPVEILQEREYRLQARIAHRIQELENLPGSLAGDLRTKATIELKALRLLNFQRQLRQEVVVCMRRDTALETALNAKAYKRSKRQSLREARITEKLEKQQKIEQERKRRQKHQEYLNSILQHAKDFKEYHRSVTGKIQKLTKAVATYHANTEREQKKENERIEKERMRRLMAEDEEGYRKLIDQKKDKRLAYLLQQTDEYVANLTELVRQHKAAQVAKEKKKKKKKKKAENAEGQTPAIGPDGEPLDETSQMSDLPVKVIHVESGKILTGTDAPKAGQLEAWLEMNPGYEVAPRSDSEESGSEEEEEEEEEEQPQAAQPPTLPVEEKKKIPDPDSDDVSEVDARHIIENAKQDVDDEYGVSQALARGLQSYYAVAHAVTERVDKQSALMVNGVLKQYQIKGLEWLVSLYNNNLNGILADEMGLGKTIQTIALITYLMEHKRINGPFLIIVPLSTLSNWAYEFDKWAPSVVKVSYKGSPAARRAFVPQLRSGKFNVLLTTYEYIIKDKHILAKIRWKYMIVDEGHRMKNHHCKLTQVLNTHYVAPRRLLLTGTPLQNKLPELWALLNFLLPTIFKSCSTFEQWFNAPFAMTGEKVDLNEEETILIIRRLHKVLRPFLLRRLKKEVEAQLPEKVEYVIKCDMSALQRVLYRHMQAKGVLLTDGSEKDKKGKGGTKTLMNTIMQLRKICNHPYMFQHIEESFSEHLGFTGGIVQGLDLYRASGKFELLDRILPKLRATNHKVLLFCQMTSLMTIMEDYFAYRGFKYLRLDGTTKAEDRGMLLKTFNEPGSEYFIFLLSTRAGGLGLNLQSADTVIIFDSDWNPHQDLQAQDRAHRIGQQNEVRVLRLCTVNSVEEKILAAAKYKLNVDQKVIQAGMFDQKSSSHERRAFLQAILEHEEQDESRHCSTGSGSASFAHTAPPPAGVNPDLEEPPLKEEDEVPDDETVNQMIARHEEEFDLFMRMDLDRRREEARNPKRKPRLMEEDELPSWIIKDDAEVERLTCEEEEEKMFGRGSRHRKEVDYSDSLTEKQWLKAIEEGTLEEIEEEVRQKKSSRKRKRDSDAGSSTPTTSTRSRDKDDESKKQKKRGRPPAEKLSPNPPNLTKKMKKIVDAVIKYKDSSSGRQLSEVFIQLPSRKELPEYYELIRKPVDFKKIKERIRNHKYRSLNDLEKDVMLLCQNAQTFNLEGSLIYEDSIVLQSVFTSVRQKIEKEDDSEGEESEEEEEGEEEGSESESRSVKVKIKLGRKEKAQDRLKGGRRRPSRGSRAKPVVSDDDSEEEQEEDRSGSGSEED

SMILES	IC50 [1] [µM]	Emax [1] [%]	BRM Max % Inhibition [2] [%]	IC50 [2] [µM]
C[C@@H]1CN(c2cccc(-c3csc(NC(=O)CNC(=O)c4cccc5c4OCC[C@@]5(C)CO)n3)c2)C[C@H](C)O1 [Compound 138, (R)-N-(2-((4-(3-((cis)-2,6-dimethylmorpholino)phenyl)thiazol-2-yl)amino)-2-oxoethyl)-4-(hydroxymethyl)-4-methylchroman-8-carboxamide]	> 5	> 50	>90	0.1 to 1
C[C@@H]1CN(c2cccc(-c3csc(NC(=O)CNC(=O)c4ccc5c(c4)[C@@H]([C@H](C)O)CC5)n3)n2)C[C@H](C)O1 [Compound 140, (3S)-N-[2-[[4-[6-[(cis)-2,6-dimethylmorpholin-4-yl]-2-pyridyl]thiazol-2-yl]amino]-2-oxo-ethyl]-3-[(1S)-1-hydroxyethyl]indane-5-carboxamide]	> 5	> 50	>95	0.1 to 1
C[C@@H]1CN(c2cccc(-c3csc(NC(=O)CNC(=O)c4cnc5c(c4)[C@](C)(CO)CC5)n3)c2)C[C@H](C)O1 [Compound 143, (R)-N-(2-((4-(3-((cis)-2,6-dimethylmorpholino)phenyl)thiazol-2-yl)amino)-2-oxoethyl)-5-(hydroxymethyl)-5-methyl-6,7-dihydro-5H-cyclopenta[b]pyridine-3-carboxamide]	> 5	> 60	>80	0.1 to 1
C[C@@H]1CN(c2cccc(-c3csc(NC(=O)CNC(=O)c4cnc5c(c4)[C@@](C)(CO)CC5)n3)c2)C[C@H](C)O1 [Compound 144, (S)-N-(2-((4-(3-((cis)-2,6-dimethylmorpholino)phenyl)thiazol-2-yl)amino)-2-oxoethyl)-5-(hydroxymethyl)-5-methyl-6,7-dihydro-5H-cyclopenta[b]pyridine-3-carboxamide]	0.1 to 1	> 80	>95	0.1 to 1
C[C@@H]1CN(c2cccc(-c3csc(NC(=O)CNC(=O)c4cccc5c4OCC[C@]5(C)C#N)n3)c2)C[C@H](C)O1 [Compound 148, (S)-4-cyano-N-(2-((4-(3-((cis)-2,6-dimethylmorpholino)phenyl)thiazol-2-yl)amino)-2-oxoethyl)-4-methylchroman-8-carboxamide]	> 5	> 30	>70	0.1 to 1
C[C@@H]1CN(c2cccc(-c3csc(NC(=O)CNC(=O)c4cccc([C@]5(F)C[C@H](O)C5)c4)n3)c2)C[C@H](C)O1 [Compound 150, N-(2-((4-(3-((cis)-2,6-dimethylmorpholino)phenyl)thiazol-2-yl)amino)-2-oxoethyl)-3-((1r,3r)-1-fluoro-3-hydroxycyclobutyl)benzamide]	0.1 to 1	> 90	>95	< 0.1
C[C@@H]1CN(c2cccc(-c3csc(NC(=O)CNC(=O)c4ccc5c(c4)[C@](C)(C#N)CC5)n3)n2)C[C@H](C)O1 [Compound 152, (R)-3-cyano-N-(2-((4-(6-((cis)-2,6-dimethylmorpholino)pyridin-2-yl)thiazol-2-yl)amino)-2-oxoethyl)-3-methyl-2,3-dihydro-1H-indene-5-carboxamide]	< 0.1	> 95	>95	< 0.1
C[C@@H]1CN(c2cccc(-c3csc(NC(=O)CNC(=O)c4ccc5c(c4)[C@](C)(C#N)CCO5)n3)n2)C[C@H](C)O1 [Compound 153, (R)-4-cyano-N-(2-((4-(6-((cis)-2,6-dimethylmorpholino)pyridin-2-yl)thiazol-2-yl)amino)-2-oxoethyl)-4-methylchroman-6-carboxamide]	< 0.1	> 95	>95	< 0.1
Cn1ncc(-c2cccc(-c3csc(NC(=O)CNC(=O)c4cccc(C(C)(C)CO)c4)n3)n2)n1 [Compound 154, 3-(1-hydroxy-2-methylpropan-2-yl)-N-(2-((4-(6-(2-methyl-2H-1,2,3-triazol-4-yl)pyridin-2-yl)thiazol-2-yl)amino)-2-oxoethyl)benzamide]	1 to 5	> 60	>90	0.1 to 1
Cn1ncc(-c2cccc(-c3csc(NC(=O)CNC(=O)c4ccc5c(c4)C(C)(CO)CC5)n3)n2)n1 (stereo not drawn) [Compound 155, 3-(hydroxymethyl)-3-methyl-N-(2-((4-(6-(2-methyl-2H-1,2,3-triazol-4-yl)pyridin-2-yl)thiazol-2-yl)amino)-2-oxoethyl)-2,3-dihydro-1H-indene-5-carboxamide]	1 to 5	> 60	>90	0.1 to 1
C[C@@H]1CN(c2cccc(-c3csc(NC(=O)CNC(=O)c4cccc([C@H]5COC[C@@H]5O)c4)n3)c2)C[C@H](C)O1 [Compound 156, N-(2-((4-(3-((cis)-2,6-dimethylmorpholino)phenyl)thiazol-2-yl)amino)-2-oxoethyl)-3-((3S,4R)-4-hydroxytetrahydrofuran-3-yl)benzamide]	> 5	> 30	>80	0.1 to 1

Second part, the compound after the results:

IC50 [1] [µM]	Emax [1] [%]	BRM Max % Inhibition [2] [%]	IC50 [2] [µM]	SMILES
1 to 5	> 70	>90	0.1 to 1	C[C@@H]1CN(c2cccc(-c3csc(NC(=O)CNC(=O)c4ccc5c(c4)C(C)(O)CCO5)n3)c2)C[C@H](C)O1 (stereo partly drawn) [Compound 136, N-[2-[[4-[3-[(cis)-2,6-dimethylmorpholin-4-yl]phenyl]thiazol-2-yl]amino]-2-oxo-ethyl]-4-hydroxy-4-methylchromane-6-carboxamide]
1 to 5	> 70	>95	0.1 to 1	C[C@@H]1CN(c2cccc(-c3csc(NC(=O)CNC(=O)c4ccnc(C(C)(C)CO)c4)n3)c2)C[C@H](C)O1 [Compound 139, N-[2-[[4-[3-[(cis)-2,6-dimethylmorpholin-4-yl]phenyl]thiazol-2-yl]amino]-2-oxo-ethyl]-2-(2-hydroxy-1,1-dimethyl-ethyl)pyridine-4-carboxamide]
> 5	> 60	>80	0.1 to 1	C[C@@H]1CN(c2cccc(-c3csc(NC(=O)CNC(=O)c4ccc5c(c4)[C@H]([C@H](C)O)CC5)n3)n2)C[C@H](C)O1 [Compound 141, (3R)-N-[2-[[4-[6-[(cis)-2,6-dimethylmorpholin-4-yl]-2-pyridyl]thiazol-2-yl]amino]-2-oxo-ethyl]-3-[(1S)-1-hydroxyethyl]indane-5-carboxamide]
0.1 to 1	> 80	>95	< 0.1	C[C@@H]1CN(c2cccc(-c3csc(NC(=O)CNC(=O)c4ccc5c(c4)[C@@H]([C@@H](C)O)CC5)n3)n2)C[C@H](C)O1 [Compound 142, (3S)-N-[2-[[4-[6-[(cis)-2,6-dimethylmorpholin-4-yl]-2-pyridyl]thiazol-2-yl]amino]-2-oxo-ethyl]-3-[(1R)-1-hydroxyethyl]indane-5-carboxamide]
1 to 5	> 60	>90	0.1 to 1	C[C@@H]1CN(c2cccc(-c3csc(NC(=O)CNC(=O)c4cc(C(C)(C)CO)ccc4F)n3)n2)C[C@H](C)O1 [Compound 145, N-[2-[[4-[6-[(cis)-2,6-dimethylmorpholin-4-yl]-2-pyridyl]thiazol-2-yl]amino]-2-oxo-ethyl]-2-fluoro-5-(2-hydroxy-1,1-dimethyl-ethyl)benzamide]
> 5	> 30	>70	0.1 to 1	C[C@@H]1CN(c2cccc(-c3csc(NC(=O)CNC(=O)c4cccc5c4OCC[C@@]5(C)C#N)n3)c2)C[C@H](C)O1 [Compound 146, (R)-4-cyano-N-(2-((4-(3-((cis)-2,6-dimethylmorpholino)phenyl)thiazol-2-yl)amino)-2-oxoethyl)-4-methylchroman-8-carboxamide]
1 to 5	> 80	>90	0.1 to 1	Cn1ccc2ccc(-c3csc(NC(=O)CNC(=O)c4cccc(C5(C#N)CCC5)c4)n3)cc2c1=O [Compound 147, 3-(1-cyanocyclobutyl)-N-(2-((4-(2-methyl-1-oxo-1,2-dihydroisoquinolin-7-yl)thiazol-2-yl)amino)-2-oxoethyl)benzamide]
1 to 5	> 70	>95	0.1 to 1	C[C@@H]1CN(c2cccc(-c3csc(NC(=O)CNC(=O)c4cccc(C5(CF)COC5)c4)n3)c2)C[C@H](C)O1 [Compound 149, N-(2-((4-(3-((cis)-2,6-dimethylmorpholino)phenyl)thiazol-2-yl)amino)-2-oxoethyl)-3-(3-(fluoromethyl)oxetan-3-yl)benzamide]
0.1 to 1	> 95	>95	< 0.1	C[C@@H]1CN(c2cccc(-c3csc(NC(=O)CNC(=O)c4cccc([C@]5(F)C[C@@H](O)C5)c4)n3)c2)C[C@H](C)O1 [Compound 151, N-(2-((4-(3-((cis)-2,6-dimethylmorpholino)phenyl)thiazol-2-yl)amino)-2-oxoethyl)-3-((1s,3s)-1-fluoro-3-hydroxycyclobutyl)benzamide]
> 5	> 30	>70	0.1 to 1	C[C@@H]1CN(c2cccc(-c3csc(NC(=O)CNC(=O)c4cccc([C@@H]5COC[C@H]5O)c4)n3)c2)C[C@H](C)O1 [Compound 157, N-(2-((4-(3-((cis)-2,6-dimethylmorpholino)phenyl)thiazol-2-yl)amino)-2-oxoethyl)-3-((3R,4S)-4-hydroxytetrahydrofuran-3-yl)benzamide]
